# Data reported in PubChem BioAssay AID330 (DTP/NCI, 2004).
# Where “and” joins values, the source holds several entries; their conditions need not be identical. Identical values can stand only once. Toxic doses and inconclusive results are not listed.
# System: P388 leukemia ip, CD2F1 mice, survival T/C
# Assay: NCI In Vivo Anticancer Drug Screen. Data for tumor model P388 Leukemia (intraperitoneal) in CD2F1 (CDF1) mice
# Conditions: endpoint: median survival time, higher = longer survival
# Summary of the method: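 Mice carrying the transplanted tumor received test compound or vehicle. Survival was recorded in each group, and the value is the treated-group measurement divided by that of the vehicle-treated control group.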
# [1] = dose: 50.0 mg/kg/injection, schedule: Q01DX009 (ip), vehicle: saline with Tween-80
# [2] = dose: 100.0 mg/kg/injection, schedule: Q01DX009 (ip), vehicle: saline with Tween-80
# [3] = dose: 25.0 mg/kg/injection, schedule: Q01DX009 (ip), vehicle: other
# [4] = dose: 50.0 mg/kg/injection, schedule: Q01DX009 (ip), vehicle: other
# [5] = dose: 100.0 mg/kg/injection, schedule: Q01DX009 (ip), vehicle: other
# [6] = dose: 200.0 mg/kg/injection, schedule: Q01DX009 (ip), vehicle: other
# [7] = dose: 12.5 mg/kg/injection, schedule: Q01DX009 (ip), vehicle: saline with Tween-80
# [8] = dose: 60.0 mg/kg/injection, schedule: Q01DX005 (ip), vehicle: saline with Tween-80
# [9] = dose: 50.0 mg/kg/injection, schedule: Q01DX005 (ip), vehicle: saline with Tween-80
# [10] = dose: 100.0 mg/kg/injection, schedule: Q01DX005 (ip), vehicle: saline with Tween-80
# [11] = dose: 200.0 mg/kg/injection, schedule: Q01DX005 (ip), vehicle: saline with Tween-80
# [12] = dose: 120.0 mg/kg/injection, schedule: Q01DX005 (ip), vehicle: saline with Tween-80
# [13] = dose: 240.0 mg/kg/injection, schedule: Q01DX005 (ip), vehicle: saline with Tween-80
# [14] = dose: 50.0 mg/kg/injection, schedule: Q01DX009 (ip), vehicle: saline
# [15] = dose: 100.0 mg/kg/injection, schedule: Q01DX009 (ip), vehicle: saline
# [16] = dose: 200.0 mg/kg/injection, schedule: Q01DX009 (ip), vehicle: saline
# [17] = dose: 25.0 mg/kg/injection, schedule: Q01DX009 (ip), vehicle: saline
# [18] = dose: 50.0 mg/kg/injection, schedule: Q01DX005 (ip), vehicle: Klucel (hydroxypropylcellulose) (HPC)
# [19] = dose: 100.0 mg/kg/injection, schedule: Q01DX005 (ip), vehicle: Klucel (hydroxypropylcellulose) (HPC)
# [20] = dose: 200.0 mg/kg/injection, schedule: Q01DX005 (ip), vehicle: Klucel (hydroxypropylcellulose) (HPC)
# [21] = dose: 12.5 mg/kg/injection, schedule: Q01DX009 (ip), vehicle: other
structure (smiles),measurement,setting,value
COc1ccc(C(=O)C(C)Br)c(OCc2ccccc2)c1OC (configuration not stated),T/C,[1],107 % of control
same,T/C,[2],105 % of control and 109 % of control
same,T/C,"dose: 200.0 mg/kg/injection, schedule: Q01DX009 (ip), vehicle: saline with Tween-80",114 % of control and 118 % of control
same,T/C,"dose: 400.0 mg/kg/injection, schedule: Q01DX009 (ip), vehicle: saline with Tween-80",110 % of control and 122 % of control
CC1C(c2ccccc2)=Nn2c(=O)n(-c3ccccc3)c(=O)n21 (configuration not stated),T/C,[3],90 % of control
same,T/C,[4],91 % of control
same,T/C,[5],91 % of control
same,T/C,[6],89 % of control
same,T/C,"dose: 400.0 mg/kg/injection, schedule: Q01DX009 (ip), vehicle: other",86 % of control
CC(NC1=NCCO1)c1cccc2ccccc12 (configuration not stated),T/C,"dose: 12.5 mg/kg/injection, schedule: Q04DX003 (ip), vehicle: saline with Tween-80",100 % of control
same,T/C,"dose: 25.0 mg/kg/injection, schedule: Q04DX003 (ip), vehicle: saline with Tween-80",95 % of control
same,T/C,"dose: 50.0 mg/kg/injection, schedule: Q04DX003 (ip), vehicle: saline with Tween-80",100 % of control
CN(C)CCC(CCc1ccccc1)OC(=O)c1ccc([N+](=O)[O-])cc1 (configuration not stated),T/C,"dose: 50.0 mg/kg/injection, schedule: Q04DX002 (ip), vehicle: saline",102 % of control
same,T/C,"dose: 100.0 mg/kg/injection, schedule: Q04DX002 (ip), vehicle: saline",107 % of control
O=C(O)c1c(-c2ccccc2)nn(-c2ccccc2)c1-c1ccccc1,T/C,"dose: 50.0 mg/kg/injection, schedule: Q04DX003 (ip), vehicle: suspension in saline",108 % of control
same,T/C,"dose: 100.0 mg/kg/injection, schedule: Q04DX003 (ip), vehicle: suspension in saline",106 % of control
same,T/C,"dose: 200.0 mg/kg/injection, schedule: Q04DX003 (ip), vehicle: suspension in saline",102 % of control
CCCOCC(O)CNCCN (configuration not stated),T/C,"dose: 50.0 mg/kg/injection, schedule: Q01DX009 (ip), vehicle: Klucel (hydroxypropylcellulose) (HPC)",100 % of control
same,T/C,"dose: 100.0 mg/kg/injection, schedule: Q01DX009 (ip), vehicle: Klucel (hydroxypropylcellulose) (HPC)",102 % of control
same,T/C,"dose: 200.0 mg/kg/injection, schedule: Q01DX009 (ip), vehicle: Klucel (hydroxypropylcellulose) (HPC)",109 % of control
CC(C)(C)N1COc2cc3c(cc2C1)OCN(C(C)(C)C)C3,T/C,[7],110 % of control
same,T/C,"dose: 25.0 mg/kg/injection, schedule: Q01DX009 (ip), vehicle: saline with Tween-80",99 % of control
same,T/C,[1],108 % of control
same,T/C,[2],119 % of control
CC[PH+](CC)CC.CC[PH+](CC)CC.[Au],T/C,"dose: 0.15 mg/kg/injection, schedule: Q01DX009 (ip), vehicle: water",104 % of control and 91 % of control
same,T/C,"dose: 0.31 mg/kg/injection, schedule: Q01DX009 (ip), vehicle: water",100 % of control and 107 % of control
same,T/C,"dose: 0.62 mg/kg/injection, schedule: Q01DX009 (ip), vehicle: water",118 % of control and 122 % of control
same,T/C,"dose: 1.25 mg/kg/injection, schedule: Q01DX009 (ip), vehicle: water",118 % of control
O=C(CNC(=O)Nc1ccc(Cl)c(Cl)c1)N/N=C/c1cccc(F)c1,T/C,"dose: 15.0 mg/kg/injection, schedule: Q01DX005 (ip), vehicle: saline with Tween-80",89 % of control
same,T/C,"dose: 30.0 mg/kg/injection, schedule: Q01DX005 (ip), vehicle: saline with Tween-80",91 % of control
same,T/C,[8],89 % of control
CCOC(=O)c1ccccc1N,T/C,"dose: 25.0 mg/kg/injection, schedule: Q01DX005 (ip), vehicle: saline with Tween-80",100 % of control
same,T/C,[9],105 % of control
same,T/C,[10],99 % of control
same,T/C,[11],100 % of control
Clc1cc[c]([Sn]([Cl])([O][Sn]([Cl])([c]2ccc(Cl)cc2)[c]2ccc(Cl)cc2)[c]2ccc(Cl)cc2)cc1,T/C,"dose: 3.12 mg/kg/injection, schedule: Q01DX005 (ip), vehicle: saline",103 % of control
same,T/C,"dose: 6.25 mg/kg/injection, schedule: Q01DX005 (ip), vehicle: saline",108 % of control
same,T/C,"dose: 12.5 mg/kg/injection, schedule: Q01DX005 (ip), vehicle: saline",119 % of control
same,T/C,"dose: 25.0 mg/kg/injection, schedule: Q01DX005 (ip), vehicle: saline",162 % of control
CC(C)CC(NC(c1ccccc1)P(=O)(O)O)C(=O)O (configuration not stated),T/C,[8],100 % of control
same,T/C,[12],96 % of control
same,T/C,[13],91 % of control
CC(C)N1CCN(c2ccncc2S(=O)(=O)N2CCN(C)CC2)CC1,T/C,[14],106 % of control
same,T/C,[15],90 % of control
same,T/C,[16],99 % of control
CCS(=O)C(F)(F)C(F)Cl (configuration not stated),T/C,[9],97 % of control
same,T/C,[10],100 % of control
same,T/C,[11],100 % of control
CN(C)CCC(=O)c1cccc(O)c1,T/C,[17],107 % of control
same,T/C,[14],98 % of control and 105 % of control
same,T/C,[15],98 % of control and 109 % of control
same,T/C,[16],97 % of control
O=C1c2ccccc2C(=O)N1/N=[N+](\[O-])N1CCOCC1,T/C,"dose: 25.0 mg/kg/injection, schedule: Q01DX005 (ip), vehicle: Klucel (hydroxypropylcellulose) (HPC)",90 % of control
same,T/C,[18],99 % of control
same,T/C,[19],90 % of control
same,T/C,[20],101 % of control
Fc1ccc2nc3ccccc3c(SCCCCCCSc3c4ccccc4nc4ccc(F)cc34)c2c1,T/C,"dose: 60.0 mg/kg/injection, schedule: Q01DX005 (ip), vehicle: Klucel (hydroxypropylcellulose) (HPC)",96 % of control
same,T/C,"dose: 120.0 mg/kg/injection, schedule: Q01DX005 (ip), vehicle: Klucel (hydroxypropylcellulose) (HPC)",90 % of control
Fc1cccc(F)n1,T/C,"dose: 25.0 mg/kg/injection, schedule: Q04DX003 (ip), vehicle: water",91 % of control
same,T/C,"dose: 50.0 mg/kg/injection, schedule: Q04DX003 (ip), vehicle: water",103 % of control
same,T/C,"dose: 100.0 mg/kg/injection, schedule: Q04DX003 (ip), vehicle: water",100 % of control
same,T/C,"dose: 200.0 mg/kg/injection, schedule: Q04DX003 (ip), vehicle: water",100 % of control
same,T/C,"dose: 400.0 mg/kg/injection, schedule: Q04DX003 (ip), vehicle: water",104 % of control
CCCCCCCCCCCCCCCCNCCCS(=O)(=O)O,T/C,"dose: 6.25 mg/kg/injection, schedule: Q01DX009 (ip), vehicle: saline with Tween-80",96 % of control
same,T/C,"dose: 6.25 mg/kg/injection, schedule: Q01DX009 (ip), vehicle: saline",103 % of control
same,T/C,[7],107 % of control
same,T/C,"dose: 12.5 mg/kg/injection, schedule: Q01DX009 (ip), vehicle: saline",100 % of control
same,T/C,[17],100 % of control
same,T/C,[1],103 % of control
same,T/C,[14],103 % of control
C=C1CC2(CCC23CC(=C)C(=O)O3)OC1=O (configuration not stated),T/C,"dose: 5.0 mg/kg/injection, schedule: Q01DX009 (ip), vehicle: Klucel (hydroxypropylcellulose) (HPC)",100 % of control
same,T/C,"dose: 10.0 mg/kg/injection, schedule: Q01DX009 (ip), vehicle: Klucel (hydroxypropylcellulose) (HPC)",116 % of control
same,T/C,"dose: 20.0 mg/kg/injection, schedule: Q01DX009 (ip), vehicle: Klucel (hydroxypropylcellulose) (HPC)",117 % of control
[N-]=[N+]=Nc1c2c(nc3ccccc13)CCCC2,T/C,[8],103 % of control
same,T/C,[12],105 % of control
Cc1c(C#N)c2nc(N)c3ccccc3n2c1C,T/C,[18],101 % of control
same,T/C,[19],106 % of control
same,T/C,[20],106 % of control
Nc1nc(CON2C(=O)c3ccccc3C2=O)cs1,T/C,[18],97 % of control
same,T/C,[19],99 % of control
same,T/C,[20],103 % of control
CSC(=S)N=Nc1c(O)[nH]c2ccccc12,T/C,[14],93 % of control
same,T/C,[15],96 % of control
same,T/C,[16],99 % of control
CC1SC2(C(=O)Nc3ccc(Br)cc32)N(c2ccc(Cl)cc2)C1=O (configuration not stated),T/C,[8],97 % of control
same,T/C,[12],109 % of control
same,T/C,[13],100 % of control
CC12C=CC(O1)C1C(=O)OC(=O)C12 (configuration not stated),T/C,[8],101 % of control
same,T/C,[12],90 % of control
COc1ccc([N+](=O)[O-])c(O)c1OC,T/C,[21],94 % of control
same,T/C,[3],96 % of control
same,T/C,[4],97 % of control
same,T/C,[5],94 % of control
same,T/C,[6],96 % of control
Cn1c(=O)cc2n(C)c3ccccc3n2c1=O,T/C,[8],96 % of control
same,T/C,[12],100 % of control
same,T/C,[13],97 % of control
O=C1/C(=C/c2cccnc2)Cc2ccccc21,T/C,[21],103 % of control
same,T/C,[3],103 % of control
same,T/C,[4],99 % of control
same,T/C,[5],99 % of control
same,T/C,[6],94 % of control
